This note sets out measurements from ChEMBL document CHEMBL2176907, “Identification of multiple 5-HT₄ partial agonist clinical candidates for the treatment of Alzheimer's disease” (J Med Chem, 2012).

For data set [1], the target named is T1, 5-hydroxytryptamine receptor 4 (Homo sapiens, UniProt Q13639). Briefly: biochemical.
Description: Displacement of [3H]GR113808 from human 5HT4D receptor expressed in HEK293 cells after 30 mins by liquid scintillation counting
The target in data set [2] is T1, 5-hydroxytryptamine receptor 4. Put plainly: Agonist activity at human 5HT4D receptor expressed in HEK293 cells assessed as cAMP production after 30 mins by HTRF assay relative to 5HT. Type of data set: functional, cell-based.
Data set [3] has the same target. Put plainly: Agonist activity at human 5HT4D receptor expressed in HEK293 cells assessed as cAMP production after 30 mins by HTRF assay. Type of data set: functional, cell-based.
Data set [4] can be described thus: Intrinsic clearance in human liver microsomes. Format: ADME, Microsome. As to conditions: read-out: CLH.
Data set [5] in a line: Apparent permeability from apical to basal side of RRCK cells at 2 uM after 2 hrs by transwell assay. Type of data set: ADME, cell-based, Canis lupus familiaris, MDCKII-LE. The following applies: dog, MDCK.
In another data set the target is CYP2D6 (Homo sapiens, UniProt P10635). Briefly: Inhibition of CYP2D6 in human liver microsomes using dextromethorphan as substrate at 3 uM. Format: ADME, Microsome. As to conditions: probe dextromethorphan.
The target of data set [6] is 5-hydroxytryptamine receptor 4 (Rattus norvegicus) (UniProt Q62758). Briefly: Agonist activity at 5HT4 receptor in rat oesophagus assessed as reversal of carbamylcholine-induced contraction at 10 uM incubated at 7 mins post carbamylcholine-challenge measured after 30 mins relative to 5HT. Format: functional.
In data set [7] the test system is Nucleic Acid. Put plainly: Ratio of drug uptake in CSF to free drug concentration in brain in sc dosed Sprague-Dawley rat. The following applies: in vivo. Type of data set: ADME, organism-based.
Data set [8] relates to Rattus norvegicus. Briefly: Procognitive activity in Sprague-Dawley rat assessed as increase in acetylcholine level in prefrontal cortex at 5 mg/kg, sc after 3 hrs by brain microdialysis relative to control. Format: functional, organism-based. More on the design: dose 5 mg/kg.
Data set [9] deals with T1, 5-hydroxytryptamine receptor 4. Put plainly: biochemical. The source holds these as a separate data set.
Description: Displacement of [3H]GR113808 from human 5HT4A receptor expressed in HEK293 cells after 30 mins by liquid scintillation counting
Data set [10] has the same target.
Description: Agonist activity at human 5HT4B receptor expressed in HEK293 cells assessed as increase in cAMP production after 30 mins by HTRF assay
In data set [11] the test system is Canis familiaris. Put plainly: Cardiotoxicity in beagle dog assessed as increase in systolic blood pressure at 0.05 mg/kg administered as repeated dose for 7 days measured up to 1 month. As to conditions: in vivo, 168 h. Format: toxicity, organism-based, Canis lupus familiaris, Artery. On the set-up: dose 0.05 mg/kg.
In data set [12] the test system is Canis familiaris. Briefly: Gastrointestinal toxicity in beagle dog assessed as emesis at 20 mg/kg administered as repeated dose for 7 days measured up to 1 month. Type of data set: organism-based, Canis lupus familiaris. More on the design: dose 20 mg/kg. As to conditions: in vivo, 168 h.
Data set [13] concerns Rattus norvegicus. Put plainly: Gastrointestinal toxicity in Sprague-Dawley rat assessed as decrease in food intake administered as repeated dose for 7 days measured up to 1 month. As to conditions: in vivo, 168 h. Format: organism-based.
Data set [14] has as its target T2, 5-hydroxytryptamine receptor 4 (Rattus norvegicus, UniProt Q62758).
Description: Agonist activity at rat 5HT4E receptor expressed in HEK293 cells assessed as increase in cAMP production after 30 mins by HTRF assay
Data set [15] deals with Rattus norvegicus. Briefly: Gastrointestinal toxicity in female Sprague-Dawley rat assessed as reduction in body weight at 30 mg/kg administered as repeated dose for 7 days measured up to 1 month. The following applies: in vivo, 168 h. On the set-up: dose 30 mg/kg. Type of data set: organism-based.
For data set [16], the target named is T2, 5-hydroxytryptamine receptor 4. This is another data set of the same source.
Description: Agonist activity at rat 5HT4L receptor expressed in HEK293 cells assessed as increase in cAMP production after 30 mins by HTRF assay
Data set [17] concerns Rattus norvegicus. Put plainly: Gastrointestinal toxicity in female Sprague-Dawley rat assessed as mucosal injury at 30 mg/kg administered as repeated dose for 7 days measured up to 1 month. Format: organism-based. On the set-up: dose 30 mg/kg. As to conditions: in vivo, 168 h.
Data set [18] can be described thus: Intrinsic clearance in dog liver microsomes. The following applies: read-out: CLH. Type of data set: ADME, Canis lupus familiaris, Microsome.
The subject of data set [19] is Canis familiaris. Put plainly: Gastrointestinal toxicity in beagle dog assessed as decrease in food intake administered as repeated dose for 7 days measured up to 1 month. Type of data set: organism-based, Canis lupus familiaris. As to conditions: in vivo, 168 h.
Data set [20] in a line: Ratio of free drug concentration in brain to free drug concentration in plasma in sc dosed Sprague-Dawley rat. Type of data set: ADME, organism-based. The following applies: read-out: K(p,uu,brain).
For data set [21], the system named is Canis familiaris. Put plainly: Neurotoxicity in beagle dog assessed as convulsions at 30 mg/kg administered as repeated dose for 7 days measured up to 1 month. Type of data set: toxicity, organism-based, Canis lupus familiaris. More on the design: dose 30 mg/kg. The following applies: in vivo, 168 h.
A short description of data set [22]: AUC (0 to 4 hrs) in sc dosed Sprague-Dawley rat CSF by LC-MS/MS analysis. Type of data set: ADME, organism-based. On the set-up: time < 4 hr, route subcutaneous.
Data set [23] is described as follows: Oral bioavailability in rat. Type of data set: ADME, organism-based. As to conditions: in vivo.
For data set [24], the system named is Rattus norvegicus. Briefly: Gastrointestinal toxicity in male Sprague-Dawley rat assessed as reduction in body weight at 100 mg/kg administered as repeated dose for 7 days measured up to 1 month. The following applies: in vivo, 168 h. Type of data set: organism-based. On the set-up: dose 100 mg/kg.
A further data set deals with MDR1. Put plainly: in vitro. The following applies: dog, MDCK-MDR1.
Data set [25] in a line: Clearance in iv dosed dog. Format: ADME, organism-based, Canis lupus familiaris. The following applies: in vivo.
A short description of data set [26]: Intrinsic clearance in rat liver microsomes. Type of data set: ADME, Microsome. The following applies: read-out: CLH.
Data set [27] deals with T1, 5-hydroxytryptamine receptor 4. Put plainly: biochemical. The source holds these as a separate data set.
Description: Displacement of [3H]GR113808 from human 5HT4B receptor expressed in HEK293 cells after 30 mins by liquid scintillation counting
Data set [28] in a line: Oral bioavailability in dog. Type of data set: ADME, organism-based, Canis lupus familiaris. The following applies: in vivo.
The target of data set [29] is T1, 5-hydroxytryptamine receptor 4. The source holds these as a separate data set.
Description: Agonist activity at human 5HT4A receptor expressed in HEK293 cells assessed as increase in cAMP production after 30 mins by HTRF assay
The subject of a further data set is Brain. Briefly: Free AUC (0 to 4 hrs) in sc dosed Sprague-Dawley rat brain by LC-MS/MS analysis. The following applies: in vivo. Format: ADME, organism-based.
For data set [30], the system named is Rattus norvegicus. Briefly: Receptor occupancy of 5HT4 receptor in Sprague-Dawley rat brain at 5 mg/kg, sc up to 4 hrs. Type of data set: functional. As to conditions: route subcutaneous.
Data set [31] deals with Rattus norvegicus. Put plainly: Gastrointestinal toxicity in male Sprague-Dawley rat assessed as mucosal injury at 100 mg/kg administered as repeated dose for 7 days measured up to 1 month. More on the design: dose 100 mg/kg. Type of data set: organism-based. As to conditions: in vivo, 168 h.
Data set [32] deals with Rattus norvegicus. Briefly: Displacement of [3H]SB207145 from 5HT4 receptor in sc dosed Sprague-Dawley rat striatal membrane incubated for 45 mins prior to [3H]SB207145-adminsitration measured after 15 mins. Type of data set: functional, organism-based. As to conditions: Striatum.
Data set [33] relates to Nucleic Acid. Briefly: Ratio of drug uptake in CSF to free drug concentration in plasma in sc dosed Sprague-Dawley rat. Type of data set: ADME, organism-based. The following applies: in vivo.
Data set [34] concerns the target T1, 5-hydroxytryptamine receptor 4. This is another data set of the same source.
Description: Agonist activity at human 5HT4E receptor expressed in HEK293 cells assessed as increase in cAMP production after 30 mins by HTRF assay
The nature of data set [35]: Clearance in iv dosed rat. Format: ADME, organism-based. The following applies: in vivo.
For data set [36], the target named is T2, 5-hydroxytryptamine receptor 4. The source holds these as a separate data set.
Description: Agonist activity at rat 5HT4S receptor expressed in HEK293 cells assessed as increase in cAMP production after 30 mins by HTRF assay
The target in data set [37] is T1, 5-hydroxytryptamine receptor 4. Briefly: biochemical. This is another data set of the same source.
Description: Displacement of [3H]GR113808 from human 5HT4E receptor expressed in CHO cells after 30 mins by liquid scintillation counting
The next data set has as its system Plasma. Put plainly: Free AUC (0 to 4 hrs) in sc dosed Sprague-Dawley rat plasma by LC-MS/MS analysis. Format: ADME, organism-based. The following applies: in vivo.
Data set [38] concerns the target T2, 5-hydroxytryptamine receptor 4. This is another data set of the same source.
Description: Displacement of [3H]GR113808 from 5HT4 receptor in rat striatal membrane after 30 mins by liquid scintillation counting

The source made the active and inactive calls. The calls are words filed in the database; no cut-off is given here.

CYP2D6, sequence (P10635 whole entry): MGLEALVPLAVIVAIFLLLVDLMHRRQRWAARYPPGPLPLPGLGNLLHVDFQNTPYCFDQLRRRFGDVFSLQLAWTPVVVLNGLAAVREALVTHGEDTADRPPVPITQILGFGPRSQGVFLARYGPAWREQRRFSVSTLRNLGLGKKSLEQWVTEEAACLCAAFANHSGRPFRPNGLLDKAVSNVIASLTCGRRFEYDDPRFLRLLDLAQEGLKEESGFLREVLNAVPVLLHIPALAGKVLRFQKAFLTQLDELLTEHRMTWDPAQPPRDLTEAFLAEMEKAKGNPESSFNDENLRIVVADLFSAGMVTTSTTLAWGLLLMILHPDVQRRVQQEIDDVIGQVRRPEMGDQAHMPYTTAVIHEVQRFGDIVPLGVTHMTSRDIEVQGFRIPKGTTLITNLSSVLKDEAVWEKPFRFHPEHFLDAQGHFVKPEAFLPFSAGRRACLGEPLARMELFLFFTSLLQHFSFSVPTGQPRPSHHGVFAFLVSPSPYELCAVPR
T2 sequence (Q62758 whole entry): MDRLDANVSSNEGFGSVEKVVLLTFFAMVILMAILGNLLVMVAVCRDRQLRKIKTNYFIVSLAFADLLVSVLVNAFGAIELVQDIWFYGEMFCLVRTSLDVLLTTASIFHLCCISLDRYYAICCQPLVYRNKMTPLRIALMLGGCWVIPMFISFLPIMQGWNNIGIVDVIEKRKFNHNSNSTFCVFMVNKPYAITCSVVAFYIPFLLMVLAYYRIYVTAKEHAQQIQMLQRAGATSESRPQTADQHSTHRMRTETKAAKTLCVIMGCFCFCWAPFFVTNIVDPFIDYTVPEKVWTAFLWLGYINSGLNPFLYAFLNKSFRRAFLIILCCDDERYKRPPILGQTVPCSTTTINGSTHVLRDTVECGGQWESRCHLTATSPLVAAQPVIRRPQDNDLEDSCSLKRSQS
T1 sequence (Q13639 whole entry): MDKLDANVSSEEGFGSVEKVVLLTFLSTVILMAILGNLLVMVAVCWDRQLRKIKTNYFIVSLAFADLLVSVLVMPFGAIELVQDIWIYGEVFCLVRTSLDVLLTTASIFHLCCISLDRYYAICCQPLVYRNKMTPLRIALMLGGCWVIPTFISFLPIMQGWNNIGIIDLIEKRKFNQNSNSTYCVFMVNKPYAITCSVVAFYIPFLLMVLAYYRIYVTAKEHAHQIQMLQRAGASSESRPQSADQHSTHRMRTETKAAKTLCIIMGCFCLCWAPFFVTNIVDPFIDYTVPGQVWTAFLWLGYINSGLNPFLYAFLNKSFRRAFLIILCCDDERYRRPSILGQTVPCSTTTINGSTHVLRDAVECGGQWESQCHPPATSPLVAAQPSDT
5-hydroxytryptamine receptor 4 (Rattus norvegicus), sequence (Q62758 whole entry): as the sequence (Q62758 whole entry) above
Description for MDR1: Efflux ratio of permeability from basal to apical to apical to basal side of MDCK cells expressing MDR1 at 2 uM after 5 hrs by transwell assay

For `CCCCN1CCC(COc2noc3cccc(OC4CCCC4)c23)CC1`, affinity in data set [1] was put at a Ki of 0.74 nM. The maximal response (Emax) in data set [2] was found to be 81%. In data set [3], the EC50 turned out to be 1.2 nM. Moreover, in [4], the CLint scaled worked out at 77 mL/min/kg. Besides, the apparent permeability from apical to basolateral (Papp A→B) at 2 h, 2 µM in data set [5] stood at 2.4 ×10⁻⁶ cm/s. This compound also came in with an inhibition at 3 µM at CYP2D6 of 79%.

As for `COCCCN1CCC(NC(=O)c2cc(Cl)c(N)c3c2OCC3)CC1`, the outcome in data set [6] was Active.

In data set [1], `CC(C)COc1cccc2onc(OCC3CCN(CC4(O)CCOCC4)CC3)c12` returned an inhibition constant Ki of 0.36 nM. For the same compound, the Emax in [2] turned out to be 85%. In addition, the EC50 in data set [3] was found to be 0.98 nM. The CLint scaled in data set [4] was 72 mL/min/kg. Further, the apical-to-basolateral permeability (Papp A→B) at 2 h, 2 µM in [5] worked out at 3.8 ×10⁻⁶ cm/s. The compound further displayed an inhibition at 3 µM at CYP2D6 of 54%.

For `CC1(C)C(=O)N(C(=O)NCC2CCN(CC3(O)CCOCC3)CC2)c2cc(F)ccc21` [PF-03382792], the inhibition constant Ki in data set [1] was 2.7 nM; in data set [9], 4.6 nM; in data set [27], 6.8 nM; in data set [37], 6.3 nM; in data set [38], 3.9 nM. For the same compound, the Ratio in the data set on Nucleic Acid [7] was found to be 2.1; with Nucleic Acid [33] it was 0.8. In addition, the outcome in the data set on Rattus norvegicus [8] was Active. The Emax in [2] amounted to 35%. For the same compound, the EC50 in [10] amounted to 1.3 nM; in data set [3], 0.9 nM; in data set [14], 2.15 nM; in data set [16], 1.52 nM; in data set [29] it was 0.8 nM; in data set [34], 1.2 nM. For the same compound, a half-maximal response in data set [36] (EC50) required 1.15 nM. In addition, the Activity entry with Canis familiaris [11], in the data set on Canis familiaris [12], in the data set with Rattus norvegicus [13], in the data set with Rattus norvegicus [15], in the data set on Rattus norvegicus [17] and with Canis familiaris [19] was “Toxic” each time. For the same compound, the Activity result in the data set on Canis familiaris [21] was “Toxic”; in the data set with Rattus norvegicus [24], “Toxic”; with Rattus norvegicus [31] it was “Toxic”; in the data set with Rattus norvegicus [32], “Dose-dependent effect”. The CLint scaled in [4] is 25.4 mL/min/kg; in data set [18], 35.4 mL/min/kg; in [26], 42.7 mL/min/kg. Besides, in [5], the Papp A→B at 2 h, 2 µM is above 27 ×10⁻⁶ cm/s. Moreover, the Kp uu in [20] is 1.8. In data set [22], this compound returned an exposure AUC(0-t) at 4 h of 1.38 µM·h. Further, the bioavailability came out at 100% in data set [23] and 51% in data set [28]. Further, the efflux ratio at 5 h, 2 µM in the data set on MDR1 amounted to 1.37. The clearance in data set [25] was found to be 12.4 mL/min/kg; in [35] it was 104 mL/min/kg. Further, the fAUC worked out at 2.922 µM·h in the data set on Brain and 1.669 µM·h in the data set on Plasma. In the data set with Rattus norvegicus [30], the Occ was above 90%.

In data set [1], `CC(C)(O)COc1cccc2onc(OCC3CCN(CC4(O)CCOCC4)CC3)c12` registered an inhibition constant (Ki) of 3.6 nM. For the same compound, the maximal response (Emax) in [2] was 50%. In addition, in [3], the EC50 worked out at 1.7 nM. The CLint scaled in data set [4] worked out at 38 mL/min/kg. Moreover, the apparent permeability from apical to basolateral (Papp A→B) at 2 h, 2 µM in data set [5] is 35 ×10⁻⁶ cm/s. Besides, the efflux ratio at 5 h, 2 µM in the data set with MDR1 was 1.6. Further, the inhibition at 3 µM against CYP2D6 is 21%.
